# Activity calls are given as the source filed them. No cut-off for these calls is given here.
# What was measured:
# [1] = tested on: SH-SY5Y; assay: Neuroprotective activity against H2O2-induced apoptosis in human SH-SY5Y cells assessed as increase in Bcl-2 expression at 10 uM preincubated for 6 hrs followed by H2O2 addition and measured after 24 hrs by Western blot analysis; format: functional, cell-based; conditions: time 30.0 hrs
# [2] = tested on: SH-SY5Y; assay: Neuroprotective activity against H2O2-induced apoptosis in human SH-SY5Y cells assessed as reduction in Bax expression at 10 uM preincubated for 6 hrs followed by H2O2 addition and measured after 24 hrs by Western blot analysis; format: functional, cell-based; conditions: time 30.0 hrs
# [3] = tested on: SH-SY5Y; assay: Neuroprotective activity against H2O2-induced apoptosis in human SH-SY5Y cells assessed as reduction in cleaved caspase-3 expression at 10 uM preincubated for 6 hrs followed by H2O2 addition and measured after 24 hrs by Western blot analysis; format: functional, cell-based; conditions: time 30.0 hrs
# [4] = biological target: Acetylcholinesterase (Electrophorus electricus, UniProt O42275); assay: Inhibition of electric eel AChE using acetylthiocholine iodide as substrate preincubated for 5 mins followed by substrate addition and measured after 1 min in presence of H2O2 by Ellman's method
# [5] = biological target: Acetylcholinesterase (Electrophorus electricus) (UniProt O42275); assay: Inhibition of electric eel AChE at 10 uM using acetylthiocholine iodide as substrate preincubated for 5 mins followed by substrate addition and measured after 1 min by Ellman's method relative to control; conditions: time 6.0 min
# [6] = tested on: SH-SY5Y; assay: Neuroprotective activity against H2O2-induced cytotoxicity in human SH-SY5Y cells assessed as cell viability at 20 uM preincubated for 6 hrs followed by H2O2 addition and measured after 24 hrs by MTT assay (reference value: 20%); format: functional; conditions: time 30 hrs, read-out: Activity
# [7] = tested on: SH-SY5Y; assay: Neuroprotective activity against H2O2-induced cytotoxicity in human SH-SY5Y cells assessed as cell viability at 5 uM preincubated for 6 hrs followed by H2O2 addition and measured after 24 hrs by MTT assay (reference value: 20%); format: functional; conditions: time 30 hrs, read-out: Activity
# [8] = tested on: SH-SY5Y; assay: Cytotoxicity against human SH-SY5Y cells assessed as reduction in cell viability at 7.81 to 31.25 uM measured after 72 hrs by MTT assay; format: cell-based; conditions: dose 7.81-31.25 µM
# [9] = tested on: SH-SY5Y; assay: Cytotoxicity against human SH-SY5Y cells assessed as reduction in cell viability at 31.25 uM measured after 72 hrs by MTT assay; format: cell-based
# [10] = tested on: SH-SY5Y; assay: Cytotoxicity against human SH-SY5Y cells assessed as reduction in cell viability at 7.81 to 15.62 uM measured after 72 hrs by MTT assay; format: cell-based; conditions: dose 7.81-15.62 µM
# [11] = Drug uptake in human SH-SY5Y cells at 10 uM measured after 12 hrs by laser scanning confocal microscopic analysis; format: ADME, cell-based
# [12] = Drug uptake in mouse BV-2 cells at 10 uM measured after 12 hrs by laser scanning confocal microscopic analysis; format: ADME, cell-based; conditions: bv-2, 12 h
# [13] = tested on: SH-SY5Y; assay: Neuroprotective activity against H2O2-induced apoptosis in human SH-SY5Y cells assessed as necrotic cells at 5 uM preincubated for 6 hrs followed by H2O2 addition and measured after 24 hrs by annexin V FITC/propidium iodide staining based flow cytometry (reference value: 44.3%); format: functional; conditions: time 30 hrs
# [14] = in vitro; conditions: human, SH-SY5Y cells
# [15] = tested on: SH-SY5Y; assay: Neuroprotective activity against H2O2-induced apoptosis in human SH-SY5Y cells assessed as reduction in cleaved caspase-3 expression preincubated for 6 hrs followed by H2O2 addition and measured after 24 hrs by Western blot analysis; format: functional, cell-based; conditions: dose 5-10 µM, time 30.0 hrs
# [16] = tested on: Rattus norvegicus; assay: Cognitive enhancing effect in Sprague-Dawley rat model of amyloid beta (25 to 35) peptide-induced memory impairment assessed as reduction in escape latency time at 0.9 mg per 100 g, […] qd for 4 weeks administered via gavage and measured after 4 to 5 days by Morris water maze test; format: functional, organism-based; conditions: time 32-33 day
# [17] = Prodrug activation assessed as hydrolysis of benzyl ester bonds in presence of H2O2 by 1H-NMR analysis
# [18] = tested on: SH-SY5Y; assay: Neuroprotective activity against H2O2-induced apoptosis in human SH-SY5Y cells assessed as late apoptotic cells at 10 uM preincubated for 6 hrs followed by H2O2 addition and measured after 24 hrs by annexin V FITC/propidium iodide staining based flow cytometry (reference value: 13.1%); format: functional; conditions: time 30 hrs
# [19] = tested on: SH-SY5Y; assay: Neuroprotective activity against H2O2-induced apoptosis in human SH-SY5Y cells assessed as early apoptotic cells at 10 uM preincubated for 6 hrs followed by H2O2 addition and measured after 24 hrs by annexin V FITC/propidium iodide staining based flow cytometry (reference value: 0.9%); format: functional; conditions: time 30 hrs
# [20] = tested on: SH-SY5Y; assay: Induction of apoptosis in human SH-SY5Y cells assessed as early apoptotic cells at 10 uM incubated for 24 hrs by annexin V FITC/propidium iodide staining based flow cytometry (reference value: […]); format: cell-based
# [21] = tested on: BV-2; assay: Antiinflammatory activity in mouse BV-2 cells assessed as fold change in LPS-induced TNFalpha mRNA expression at 10 uM preincubated for 6 hrs followed by LPS stimulation and measured after 24 hrs RT-qPCR analysis (reference value: 3.86 +/- 0.25); format: functional; conditions: time 30 hrs
# [22] = tested on: BV-2; assay: Antiinflammatory activity in mouse BV-2 cells assessed as reduction in LPS-induced IL1beta mRNA expression preincubated for 6 hrs followed by LPS stimulation and measured after 24 hrs RT-qPCR analysis; format: functional, cell-based; conditions: dose 5-10 µM, time 30.0 hrs
# [23] = tested on: Rattus norvegicus; assay: Cognitive enhancing effect in Sprague-Dawley rat model of amyloid beta (25 to 35) peptide-induced memory impairment assessed as number of platform crossing at 0.9 mg per 100 g, […] qd for 4 weeks administered via gavage and measured after 5 days by Morris water maze test (reference value: 0.4); format: functional; conditions: time 33 day
# [24] = tested on: SH-SY5Y; assay: Neuroprotective activity against H2O2-induced apoptosis in human SH-SY5Y cells assessed as necrotic cells at 10 uM preincubated for 6 hrs followed by H2O2 addition and measured after 24 hrs by annexin V FITC/propidium iodide staining based flow cytometry (reference value: 44.3%); format: functional; conditions: time 30 hrs
# [25] = tested on: SH-SY5Y; assay: Neuroprotective activity against H2O2-induced apoptosis in human SH-SY5Y cells assessed as early apoptotic cells at 5 uM preincubated for 6 hrs followed by H2O2 addition and measured after 24 hrs by annexin V FITC/propidium iodide staining based flow cytometry (reference value: 0.9%); format: functional; conditions: time 30 hrs
# [26] = tested on: SH-SY5Y; assay: Neuroprotective activity against H2O2-induced apoptosis in human SH-SY5Y cells assessed as increase in Bcl-2 expression preincubated for 6 hrs followed by H2O2 addition and measured after 24 hrs by Western blot analysis; format: functional, cell-based; conditions: dose 5-10 µM, time 30.0 hrs
# [27] = tested on: SH-SY5Y; assay: Neuroprotective activity against H2O2-induced apoptosis in human SH-SY5Y cells assessed as reduction in cells with red fluorescence at 10 uM preincubated for 6 hrs followed by H2O2 addition and measured after 24 hrs by calcein AM/propidium iodide staining based laser confocal microscope; format: functional, cell-based; conditions: time 30.0 hrs
# [28] = tested on: Rattus norvegicus; assay: Cognitive enhancing effect in Sprague-Dawley rat model of amyloid beta (25 to 35) peptide-induced memory impairment assessed as time spent in target platform at 0.9 mg per 100 g, […] qd for 4 weeks administered via gavage and measured after 5 days by Morris water maze test (reference value: 0.5 sec); format: functional; conditions: time 33 day
# [29] = tested on: HepG2; assay: Hepatotoxicity in human HepG2 cells assessed as increase in ROS accumulation by measuring increase in green fluorescence at 25 to 50 uM measured after 24 hrs by ROS tracker based laser confocal microscopic analysis; format: toxicity, cell-based; conditions: hepg2, 24 h, dose 25-50 µM
# [30] = tested on: SH-SY5Y; assay: Neuroprotective activity against H2O2-induced apoptosis in human SH-SY5Y cells assessed as reduction in Bax expression preincubated for 6 hrs followed by H2O2 addition and measured after 24 hrs by Western blot analysis; format: functional, cell-based; conditions: dose 5-10 µM, time 30.0 hrs
# [31] = tested on: BV-2; assay: Antiinflammatory activity in mouse BV-2 cells assessed as reduction in LPS-induced ROS level at 10 uM preincubated for 6 hrs followed by LPS stimulation and measured after 18 hrs by DCFH-DA staining based laser confocal microscopic analysis; format: functional, cell-based
# [32] = tested on: BV-2; assay: Antiinflammatory activity in mouse BV-2 cells assessed as fold change in LPS-induced IL1beta mRNA expression at 10 uM preincubated for 6 hrs followed by LPS stimulation and measured after 24 hrs RT-qPCR analysis (reference value: 3.68 +/- 0.02); format: functional; conditions: time 30 hrs
# [33] = tested on: BV-2; assay: Antiinflammatory activity in mouse BV-2 cells assessed as reduction in LPS-induced TNFalpha mRNA expression preincubated for 6 hrs followed by LPS stimulation and measured after 24 hrs RT-qPCR analysis; format: functional, cell-based; conditions: dose 5-10 µM, time 30.0 hrs
# [34] = tested on: SH-SY5Y; assay: Neuroprotective activity against H2O2-induced apoptosis in human SH-SY5Y cells assessed as viable cells at 5 uM preincubated for 6 hrs followed by H2O2 addition and measured after 24 hrs by annexin V FITC/propidium iodide staining based flow cytometry (reference value: 41.7%); format: functional; conditions: time 30 hrs, read-out: Activity
# [35] = tested on: SH-SY5Y; assay: Neuroprotective activity against H2O2-induced apoptosis in human SH-SY5Y cells assessed as increase in viable cells preincubated for 6 hrs followed by H2O2 addition and measured after 24 hrs by annexin V FITC/propidium iodide staining based flow cytometry; format: functional, cell-based; conditions: dose 5-10 µM, time 30.0 hrs
# [36] = tested on: BV-2; assay: Antiinflammatory activity in mouse BV-2 cells assessed as fold change in LPS-induced TNFalpha mRNA expression at 5 uM preincubated for 6 hrs followed by LPS stimulation and measured after 24 hrs RT-qPCR analysis (reference value: 3.86 +/- 0.25); format: functional; conditions: time 30 hrs
# [37] = tested on: SH-SY5Y; assay: Neuroprotective activity against H2O2-induced apoptosis in human SH-SY5Y cells assessed as viable cells at 10 uM preincubated for 6 hrs followed by H2O2 addition and measured after 24 hrs by annexin V FITC/propidium iodide staining based flow cytometry (reference value: 41.7%); format: functional; conditions: time 30 hrs, read-out: Activity
# [38] = tested on: SH-SY5Y; assay: Induction of apoptosis in human SH-SY5Y cells assessed as necrotic cells at 10 uM incubated for 24 hrs by annexin V FITC/propidium iodide staining based flow cytometry (reference value: 0.8 %); format: cell-based
# [39] = tested on: SH-SY5Y; assay: Neuroprotective activity against H2O2-induced apoptosis in human SH-SY5Y cells assessed as late apoptotic cells at 5 uM preincubated for 6 hrs followed by H2O2 addition and measured after 24 hrs by annexin V FITC/propidium iodide staining based flow cytometry (reference value: 13.1%); format: functional; conditions: time 30 hrs
# [40] = tested on: SH-SY5Y; assay: Induction of apoptosis in human SH-SY5Y cells assessed as late apoptotic cells at 10 uM incubated for 24 hrs by annexin V FITC/propidium iodide staining based flow cytometry (reference value: […]); format: cell-based
# [41] = tested on: BV-2; assay: Antiinflammatory activity in mouse BV-2 cells assessed as fold change in LPS-induced IL1beta mRNA expression at 5 uM preincubated for 6 hrs followed by LPS stimulation and measured after 24 hrs RT-qPCR analysis (reference value: 3.68 +/- 0.02); format: functional; conditions: time 30 hrs
# Acetylcholinesterase, sequence (O42275 whole entry): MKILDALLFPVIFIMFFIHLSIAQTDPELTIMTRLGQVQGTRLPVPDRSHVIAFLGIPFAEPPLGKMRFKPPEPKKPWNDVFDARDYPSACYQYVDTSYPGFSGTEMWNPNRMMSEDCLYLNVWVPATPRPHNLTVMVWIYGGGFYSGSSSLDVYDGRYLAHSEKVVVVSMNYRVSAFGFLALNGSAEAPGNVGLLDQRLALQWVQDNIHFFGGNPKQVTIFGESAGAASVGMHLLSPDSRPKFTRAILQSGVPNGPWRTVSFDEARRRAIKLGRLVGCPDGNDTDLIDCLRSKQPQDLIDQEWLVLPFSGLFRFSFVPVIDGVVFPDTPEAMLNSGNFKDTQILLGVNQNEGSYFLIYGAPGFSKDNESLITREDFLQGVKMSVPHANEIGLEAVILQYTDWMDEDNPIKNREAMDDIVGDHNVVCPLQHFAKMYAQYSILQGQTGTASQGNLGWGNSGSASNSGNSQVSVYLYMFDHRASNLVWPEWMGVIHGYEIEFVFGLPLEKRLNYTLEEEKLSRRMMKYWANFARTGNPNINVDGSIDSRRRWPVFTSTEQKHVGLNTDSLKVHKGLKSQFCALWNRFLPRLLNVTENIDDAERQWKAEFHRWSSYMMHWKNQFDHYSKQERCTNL
# Acetylcholinesterase (Electrophorus electricus), sequence (O42275 24-633 limits assumed): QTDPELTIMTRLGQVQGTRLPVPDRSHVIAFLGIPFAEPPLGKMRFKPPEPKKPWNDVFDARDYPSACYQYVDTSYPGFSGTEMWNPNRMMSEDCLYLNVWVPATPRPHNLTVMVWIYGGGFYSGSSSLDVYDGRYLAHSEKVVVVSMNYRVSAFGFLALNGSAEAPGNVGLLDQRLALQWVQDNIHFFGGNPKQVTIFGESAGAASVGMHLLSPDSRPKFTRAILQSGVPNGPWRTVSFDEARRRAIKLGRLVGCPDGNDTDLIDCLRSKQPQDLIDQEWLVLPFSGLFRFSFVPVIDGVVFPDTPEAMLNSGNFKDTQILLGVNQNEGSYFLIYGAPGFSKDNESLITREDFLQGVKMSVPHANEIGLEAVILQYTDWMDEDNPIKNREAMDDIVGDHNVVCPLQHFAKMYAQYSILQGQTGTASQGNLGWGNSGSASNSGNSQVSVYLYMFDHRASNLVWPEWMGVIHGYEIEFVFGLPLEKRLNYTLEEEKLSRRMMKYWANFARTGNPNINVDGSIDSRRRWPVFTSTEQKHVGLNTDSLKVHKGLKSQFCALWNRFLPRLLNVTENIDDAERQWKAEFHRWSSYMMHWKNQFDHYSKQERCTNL
compound,measurement,setting,value
COc1cc(/C=C/C(=O)O)ccc1O,Activity,[1],Active
same,Activity,[2],Active
same,Activity,[3],Active
Cc1cc(COC(=O)NCCCNc2c3c(nc4ccccc24)CCCC3)c(OCc2ccc(B3OC(C)(C)C(C)(C)O3)cc2)c(COC(=O)C(C)c2ccc(CC(C)C)cc2)c1 (stereo not given),IC50,[4],302 nM
same,inhibition,[5],32.9%
same,viability at 20 µM,[6],> 80%
same,viability at 5 µM,[7],> 50%
same,Activity,[8],Toxic
Cc1cc(COC(=O)NCCCCNc2c3c(nc4ccccc24)CCCC3)c(OCc2ccc(B3OC(C)(C)C(C)(C)O3)cc2)c(COC(=O)C(C)c2ccc(CC(C)C)cc2)c1 (stereo not given),IC50,[4],80 nM
same,Activity,[9],Toxic
same,inhibition,[5],46%
same,Activity,[10],Non-Toxic
same,viability at 5 µM,[7],> 50%
Cc1cc(COC(=O)CCCCCOc2ccc3ccc(=O)oc3c2)c(OCc2ccc(B3OC(C)(C)C(C)(C)O3)cc2)c(COC(=O)C(C)c2ccc(CC(C)C)cc2)c1 (stereo not given),Drug uptake,[11],Active
same,Drug uptake,[12],Active
Cc1cc(COC(=O)NCCNc2c3c(nc4ccccc24)CCCC3)c(OCc2ccc(B3OC(C)(C)C(C)(C)O3)cc2)c(COC(=O)C(C)c2ccc(CC(C)C)cc2)c1 (stereo not given),IC50,[4],608 nM
same,Activity,[9],Toxic
same,inhibition,[5],28.2%
same,viability at 20 µM,[6],> 80%
same,Activity,[10],Non-Toxic
same,viability at 5 µM,[7],> 50%
Cc1cc(COC(=O)NCCCCCCNc2c3c(nc4ccccc24)CCCC3)c(OCc2ccc(B3OC(C)(C)C(C)(C)O3)cc2)c(COC(=O)C(C)c2ccc(CC(C)C)cc2)c1 (stereo not given),Activity,[13],14.1%
same,"viability at 24 h, 5 µM",[14],90.4%
same,Activity,[15],Dose-dependent effect
same,IC50,[4],39.2 nM
same,Activity,[16],Active
same,Drug metabolism,[17],Metabolite_Detected
same,Activity,[18],4.97%
same,Activity,[19],1.17%
same,Activity,[20],1.65%
same,fold change (FC),[21],1.2
same,Activity,[22],Dose-dependent effect
same,Activity,[23],4.2
same,Activity,[24],7.3%
same,Activity,[25],1.75%
same,Activity,[26],Dose-dependent effect
same,Activity,[9],Non-Toxic
same,Activity,[27],Active
same,Time,[28],2.2 s
same,Activity,[29],Toxic
same,Activity,[30],Dose-dependent effect
same,Activity,[31],Active
same,fold change (FC),[32],0.86
same,Activity,[33],Dose-dependent effect
same,viability at 5 µM,[34],73.7%
same,Activity,[35],Dose-dependent effect
same,fold change (FC),[36],1.6
same,viability at 10 µM,[37],86.6%
same,Activity,[38],2.48%
same,inhibition,[5],47.2%
same,viability at 20 µM,[6],> 80%
same,Activity,[39],10.5%
same,Activity,[40],2.57%
same,fold change (FC),[41],1.36
same,viability at 5 µM,[7],> 50%
